In the NIST ThermoML archive (doi:10.1016/j.jct.2011.06.009):
Numbers after ± are expanded uncertainties.

Assay: refractive index (Na D-line) (dimensionless)
Conditions: 101.33 kPa, Liquid, Standard Abbe refractometry

Row | refractive index (298.1 K) | refractive index (293.1 K) | SMILES
1 | 1.4509 ± 0.0008 |  | CCCC[n+]1ccc(C)cc1.F[B-](F)(F)F [1-butyl-4-methylpyridinium tetrafluoroborate]
2 |  | 1.422 ± 0.0008 | CCCCCCCCCCCC [dodecane]
3 |  | 1.4915 ± 0.0008 | CCCc1ccccc1 [propylbenzene]

Row | SMILES | refractive index (298.1 K) | refractive index (293.1 K)
4 | CCCCc1ccccc1 [butylbenzene] |  | 1.4895 ± 0.0008
